From patent US20210369615A1, “SOLID ORAL FORMULATIONS OF AMPHOTERICIN B” (iCo Therapeutics Inc., priority 2018, published 2021)
Values joined by “and” are separate entries in the source; they are usually repeats but may differ in a detail not shown here. Identical values can stand only once.

Assay: Phase 1 single dose escalation pharmacokinetic study, Amphotericin B in human plasma
Type: in vivo
Settings: for Amphotericin B concentration: 800 mg dose
Description: A phase 1, randomized, double-blind, placebo-controlled, single dose escalation study was performed to evaluate the pharmacokinetic parameters after administration of a single dose of Formula 1A. 100 mg (FIG. 10A), 200 mg (FIG. 10B), 400 mg (FIG. 10C) and 800 mg (FIG. 10D) doses were investigated in this study.
For each dose, AmpB or a placebo was administered, and blood samples were obtained pre-dose, and post-dosing at 0.5 hr, 1 hr, 2 hr, 3 hr, 4 hr, 6 hr, 8 hr, 10 hr, 12 hr, 24 hr, 36 hr, 48 hr, 60 hr, 72 hr, 144 hr, and 192 hr. Pharmacokinetic analysis was performed using Phoenix™ WinNonlin® (Pharsight Corporation). Doses and sampling times were entered as provided by the sponsor. Dose normalised parameters, and descriptive statistics were calculated using Phoenix™ WinNonlin®.
Where Ct is the last measurable concentration and Kel is the elimination rate constant estimated using log-linear regression during the terminal elimination phase. • t½: Elimination half-life, determined by ln(2)/Kel • CL/f: Observed Systemic clearance, calculated as dose/AUC • Vz: Observed Volume of distribution during the terminal phase, calculated as CL/Kel

[1] = single 100 mg dose (Formula 1A), Geometric Mean, N 6
[2] = single 100 mg dose (Formula 1A), Mean, N 6
[3] = single 100 mg dose (Formula 1A), Median, N 6
[4] = single 100 mg dose (Formula 1A), individual subjects A, B, C, D, F, H
[5] = single 200 mg dose (Formula 1A), Geometric Mean, N 6
[6] = single 200 mg dose (Formula 1A), Mean, N 6
[7] = single 200 mg dose (Formula 1A), Median, N 6
[8] = single 200 mg dose (Formula 1A), individual subjects I, 3, K, M, N, P
[9] = single 400 mg dose (Formula 1A), Geometric Mean, N 6
[10] = single 400 mg dose (Formula 1A), Mean, N 6
[11] = single 400 mg dose (Formula 1A), Median, N 6
[12] = single 400 mg dose (Formula 1A), individual subjects R, S, T, U, V, W

With C[C@@H]1[C@H](O)[C@@H](C)/C=C/C=C/C=C/C=C/C=C/C=C/C=C/[C@H](O[C@@H]2O[C@H](C)[C@@H](O)[C@H](N)[C@@H]2O)C[C@@H]2O[C@](O)(C[C@@H](O)C[C@@H](O)[C@H](O)CC[C@@H](O)C[C@@H](O)CC(=O)O[C@H]1C)C[C@H](O)[C@H]2C(=O)O [Amphotericin B] the “Amphotericin B concentration” value (nominal hour 0.5, individual subjects) was “BQL”, the “Amphotericin B concentration” value (nominal hour 1, individual subjects) was 0.791 ng/mL and BQL (5×) and the “Amphotericin B concentration” value (nominal hour 2, individual subjects) was 7.683 ng/mL and 8.234 ng/mL and 2.414 ng/mL and 5.164 ng/mL and 3.206 ng/mL and 4.175 ng/mL. The “Amphotericin B concentration” value (nominal hour 4, individual subjects) was 16.397 ng/mL and 28.318 ng/mL and 18.814 ng/mL and 17.942 ng/mL and 23.486 ng/mL and 20.176 ng/mL, the “Amphotericin B concentration” value (nominal hour 6, individual subjects) was 29.902 ng/mL and 40.067 ng/mL and 30.628 ng/mL and 24.140 ng/mL and 33.962 ng/mL and 31.375 ng/mL and the “Amphotericin B concentration” value (nominal hour 8, individual subjects) was 22.535 ng/mL and 31.543 ng/mL and 30.838 ng/mL and 27.279 ng/mL and 39.722 ng/mL and 22.816 ng/mL. The “Amphotericin B concentration” value (nominal hour 10, individual subjects) was 21.595 ng/mL and 29.990 ng/mL and 25.996 ng/mL and 32.914 ng/mL and 42.805 ng/mL and 22.226 ng/mL, the “Amphotericin B concentration” value (nominal hour 12, individual subjects) was 21.001 ng/mL and 31.865 ng/mL and 22.810 ng/mL and 27.866 ng/mL and 40.021 ng/mL and 21.390 ng/mL and the “Amphotericin B concentration” value (nominal hour 24, individual subjects) was 16.218 ng/mL and 14.674 ng/mL and 23.607 ng/mL and 14.816 ng/mL and 19.124 ng/mL and 26.064 ng/mL. The “Amphotericin B concentration” value (nominal hour 36, individual subjects) was 10.661 ng/mL and 16.074 ng/mL and 13.715 ng/mL and 9.365 ng/mL and 12.504 ng/mL and 19.218 ng/mL, the “Amphotericin B concentration” value (nominal hour 48, individual subjects) was 6.472 ng/mL and 12.880 ng/mL and 12.291 ng/mL and 7.395 ng/mL and 8.947 ng/mL and 13.166 ng/mL and the “Amphotericin B concentration” value (nominal hour 63, individual subjects) was 6.398 ng/mL and 10.642 ng/mL and 7.859 ng/mL and 3.935 ng/mL and 6.865 ng/mL and 9.972 ng/mL. For the same molecule, the “Amphotericin B concentration” value (nominal hour 72, individual subjects) was 5.044 ng/mL and 10.165 ng/mL and 6.793 ng/mL and 2.412 ng/mL and 3.808 ng/mL and 8.297 ng/mL, the “Amphotericin B concentration” value (nominal hour 144, individual subjects) was 0.539 ng/mL and 2.254 ng/mL and 1.380 ng/mL and 0.329 ng/mL and 0.518 ng/mL and 1.905 ng/mL and the “Amphotericin B concentration” value (nominal hour 192, individual subjects) was “BQL (3×) and 0.726 ng/mL and 0.132 ng/mL and 0.243 ng/mL”. The “Amphotericin B concentration” value (pre-dose, individual subjects) was “BQL”, the “% AUCexp” value [1] was 16.37% and the AUCO-inf [1] was 1155.07 ng·h/mL. For the same molecule, the AUCO-t [1] was 865.75 ng·h/mL, the CL/F [1] was 86574.82 mL/h and the Cmax [1] was 29.45 ng/mL. The Kel [1] was 0.02 h⁻¹, the Tmax [1] was 6.00 h and the T½ [1] was 28.42 h. For the same molecule, the V/F [1] was 3549117.10 mL, the “% AUCexp” value [2] was 23.01% and the AUCO-inf [2] was 1329.45 ng·h/mL. The AUCO-t [2] was 912.51 ng·h/mL, the CL/F [2] was 96064.72 mL/h and the Cmax [2] was 30.22 ng/mL. For the same molecule, the Kel [2] was 0.03 h⁻¹, the Tmax [2] was 6.00 h and the T½ [2] was 31.80 h. For the same molecule, the V/F [2] was 3656853.27 mL, the “% AUCexp” value [3] was 16.74% and the AUCO-inf [3] was 1029.80 ng·h/mL. The AUCO-t [3] was 759.65 ng·h/mL, the CL/F [3] was 102549.85 mL/h and the Cmax [3] was 28.02 ng/mL. The Kel [3] was 0.03 h⁻¹, the Tmax [3] was 6.00 h and the T½ [3] was 27.27 h. The V/F [3] was 3591414.60 mL, the “% AUCexp” value [4] was 12.17% and 44.38% and 21.32% and 9.08% and 47.20% and 3.91% and the AUCO-inf [4] was 723.90 ng·h/mL and 1362.29 ng·h/mL and 1267.06 ng·h/mL and 788.16 ng·h/mL and 3042.77 ng·h/mL and 792.54 ng·h/mL. The AUCO-t [4] was 635.82 ng·h/mL and 757.71 ng·h/mL and 996.95 ng·h/mL and 716.57 ng·h/mL and 1606.43 ng·h/mL and 761.59 ng·h/mL, the CL/F [4] was 138140.40 mL/h and 73405.78 mL/h and 78922.85 mL/h and 126877.64 mL/h and 32864.80 mL/h and 126176.85 mL/h and the Cmax [4] was 22.66 ng/mL and 24.41 ng/mL and 30.05 ng/mL and 25.98 ng/mL and 43.57 ng/mL and 34.67 ng/mL. The Kel [4] was 0.03 1/hr and 0.01 1/hr (2×) and 0.02 1/hr and 0.04 1/hr and 0.05 1/hr, the Tmax [4] was 6.00 h and the T½ [4] was 22.60 h and 47.37 h and 31.94 h and 19.37 h and 55.13 h and 14.42 h. For the same molecule, the V/F [4] was 4503070.74 mL and 5016960.70 mL and 3637239.70 mL and 3545589.51 mL and 2613781.85 mL and 2624477.13 mL, the “% AUCexp” value [5] was 13.76% and the AUCO-inf [5] was 1040.21 ng·h/mL. For the same molecule, the AUCO-t [5] was 822.65 ng·h/mL, the CL/F [5] was 192268.01 mL/h and the Cmax [5] was 28.66 ng/mL. For the same molecule, the Kel [5] was 0.03 h⁻¹, the Tmax [5] was 6.29 h and the T½ [5] was 25.39 h. The V/F [5] was 7043125.41 mL, the “% AUCexp” value [6] was 19.01% and the AUCO-inf [6] was 1066.59 ng·h/mL. The AUCO-t [6] was 856.21 ng·h/mL, the CL/F [6] was 197223.58 mL/h and the Cmax [6] was 29.70 ng/mL. It also gave a Kel [6] of 0.03 h⁻¹, a Tmax [6] of 6.33 h and a T½ [6] of 29.35 h. For the same molecule, the V/F [6] was 8022007.31 mL, the “% AUCexp” value [7] was 15.83% and the AUCO-inf [7] was 1061.32 ng·h/mL. The AUCO-t [7] was 804.02 ng·h/mL, the CL/F [7] was 189651.36 mL/h and the Cmax [7] was 28.62 ng/mL. The Kel [7] was 0.03 h⁻¹, the Tmax [7] was 6.00 h and the T½ [7] was 24.59 h. For the same molecule, the V/F [7] was 7174305.73 mL, the “% AUCexp” value [8] was 51.97% and 15.07% and 6.50% and 16.58% and 4.05% and 19.85% and the AUCO-inf [8] was 1241.16 ng·h/mL and 1146.01 ng·h/mL and 1438.52 ng·h/mL and 737.08 ng·h/mL and 860.11 ng·h/mL and 976.64 ng·h/mL. The AUCO-t [8] was 596.14 ng·h/mL and 973.27 ng·h/mL and 1344.94 ng·h/mL and 614.86 ng·h/mL and 825.30 ng·h/mL and 782.74 ng·h/mL, the CL/F [8] was 161138.94 mL/h and 174518.59 mL/h and 139032.26 mL/h and 271340.46 mL/h and 232527.11 mL/h and 204784.12 mL/h and the Cmax [8] was 18.77 ng/mL and 27.35 ng/mL and 42.46 ng/mL and 23.41 ng/mL and 36.31 ng/mL and 29.90 ng/mL. The Kel [8] was 0.01 1/hr and 0.03 1/hr (3×) and 0.05 1/hr (2×), the Tmax [8] was 6.00 h and 8.00 h and the T½ [8] was 68.82 h and 24.69 h and 15.32 h and 24.50 h and 15.26 h and 27.53 h. For the same molecule, the V/F [8] was 15999011.64 mL and 6215853.68 mL and 3073693.76 mL and 9591266.45 mL and 5119460.58 mL and 8132757.78 mL, the “% AUCexp” value [9] was 25.23% and the AUCO-inf [9] was 1799.36 ng·h/mL. It also gave an AUCO-t [9] of 1045.59 ng·h/mL, a CL/F [9] of 222300.98 mL/h and a Cmax [9] of 28.16 ng/mL. For the same molecule, the Kel [9] was 0.02 h⁻¹, the Tmax [9] was 7.11 h and the T½ [9] was 42.43 h. The V/F [9] was 13606337.94 mL, the “% AUCexp” value [10] was 36.21% and the AUCO-inf [10] was 2494.19 ng·h/mL. For the same molecule, the AUCO-t [10] was 1148.77 ng·h/mL, the CL/F [10] was 300584.11 mL/h and the Cmax [10] was 29.04 ng/mL. For the same molecule, the Kel [10] was 0.02 h⁻¹, the Tmax [10] was 7.33 h and the T½ [10] was 57.04 h. For the same molecule, the V/F [10] was 15172419.27 mL, the “% AUCexp” value [11] was 33.41% and the AUCO-inf [11] was 2029.33 ng·h/mL. The AUCO-t [11] was 1089.21 ng·h/mL, the CL/F [11] was 197696.44 mL/h and the Cmax [11] was 28.44 ng/mL. It also gave a Kel [11] of 0.02 h⁻¹, a Tmax [11] of 6.00 h and a T½ [11] of 39.03 h. For the same molecule, the V/F [11] was 12667205.14 mL, the “% AUCexp” value [12] was 73.99% and 4.55% and 35.27% and 11.36% and 31.55% and 60.51% and the AUCO-inf [12] was 7138.99 ng·h/mL and 981.05 ng·h/mL and 1918.71 ng·h/mL and 520.98 ng·h/mL and 2265.43 ng·h/mL and 2139.96 ng·h/mL. The AUCO-t [12] was 1856.79 ng·h/mL and 936.40 ng·h/mL and 1242.03 ng·h/mL and 461.79 ng·h/mL and 1550.60 ng·h/mL and 845.03 ng·h/mL, the CL/F [12] was 56030.30 mL/h and 407726.35 mL/h and 208473.83 mL/h and 767787.87 mL/h and 176567.28 mL/h and 186919.05 mL/h and the Cmax [12] was 41.12 ng/mL and 26.38 ng/mL and 30.49 ng/mL and 21.86 ng/mL and 34.26 ng/mL and 20.15 ng/mL. The Kel [12] was 0.00 1/hr and 0.05 1/hr and 0.02 1/hr (2×) and 0.03 1/hr and 0.01 1/hr, the Tmax [12] was 10.00 h and 6.00 h and the T½ [12] was 142.05 h and 13.66 h and 46.06 h and 24.18 h and 32.01 h and 84.28 h. The V/F [12] was 11482617.37 mL and 8037364.81 mL and 13851792.91 mL and 26779550.10 mL and 8154849.30 mL and 22728341.15 mL.
